Measured values taken from patent US20230200390A1, “SELECTIVE HERBICIDES BASED ON SUBSTITUTED ISOXAZOLIN CARBOXAMIDES AND MEFENPYR-DIETHYL” (BAYER AKTIENGESELLSCHAFT, priority 2020, published 2023).

Columns and labels:
Format in all cases: in vivo
[1] = tested on: spring barley, HORVS Montoya; experiment: Tank-mix; post-emergence: crop damage by herbicide with/without safener mefenpyr-diethyl
Method in brief: (§1)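 Visual percent crop damage (0–100 relative to untreated plants) assessed 1–3 weeks post-application. Plants in sandy loam were sprayed at the 1–3-leaf stage with herbicide with or without safener at several rates, water volume 300 l/ha.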

[2] = tested on: spring wheat, TRZAS Triso; experiment: as above
Method in brief: as §1

[3] = tested on: spring barley, HORVS Montoya; experiment: Seed treatment with safener; post-emergence herbicide, crop damage; details: for HER effect + SAF / Reduction [%] / Reduction [Difference]: mefenpyr-diethyl 0.5 g a.i./kg seed
Method in brief: (§2)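 Crop injury was rated visually in % at 10 and 21 days after post-emergence spraying at the 2-leaf stage. The herbicide was a WP in 300 l/ha water plus 1 l/ha MERO. Plants grew from seed either safener-coated at stated g a.i./kg rates via a milk-diluted slurry, or untreated.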

[4] = tested on: spring wheat, TRZAS Triso; experiment: as above; details: 21 DAT; for HER effect + SAF [%] (crop damage) / Reduction [%] / Reduction [Difference]: mefenpyr-diethyl 0.5 g a.i./kg seed; for HER effect [%] (crop damage, herbicide without safener): no safener
Method in brief: as §2

[5] = HER 1.5 g a.i./ha + mefenpyr-diethyl 50 g a.i./ha, 21 DAT
[6] = herbicide alone 1.5 g a.i./ha, 21 DAT
[7] = HER 2 g a.i./ha + mefenpyr-diethyl 50 g a.i./ha, 21 DAT
[8] = herbicide alone 2 g a.i./ha, 21 DAT
[9] = HER 0.5 g a.i./ha post-emergence, 21 DAT
[10] = HER 2 g a.i./ha post-emergence, 21 DAT
[11] = HER 8 g a.i./ha post-emergence, 21 DAT
[12] = herbicide alone 2 g a.i./ha post-emergence, 21 DAT
[13] = HER 8 g a.i./ha + mefenpyr-diethyl 50 g a.i./ha, 10 DAT
[14] = HER 32 g a.i./ha + mefenpyr-diethyl 100 g a.i./ha, 10 DAT
[15] = herbicide alone 8 g a.i./ha, 10 DAT
[16] = herbicide alone 32 g a.i./ha, 10 DAT
[17] = HER 8 g a.i./ha + mefenpyr-diethyl 50 g a.i./ha, 21 DAT
[18] = HER 8 g a.i./ha post-emergence, 10 DAT
[19] = HER 32 g a.i./ha post-emergence, 10 DAT
[20] = herbicide alone 8 g a.i./ha post-emergence, 10 DAT
[21] = herbicide alone 32 g a.i./ha post-emergence, 10 DAT
[22] = HER 2 g a.i./ha + mefenpyr-diethyl 50 g a.i./ha, 10 DAT
[23] = herbicide alone 2 g a.i./ha, 10 DAT
[24] = HER 6 g a.i./ha + mefenpyr-diethyl 50 g a.i./ha, 21 DAT
[25] = HER 24 g a.i./ha + mefenpyr-diethyl 100 g a.i./ha, 21 DAT
[26] = HER 2 g a.i./ha post-emergence, 10 DAT
[27] = HER 32 g a.i./ha post-emergence, 21 DAT

With CC(C)OC(=O)C1CC(NC(=O)C2(C(C)(F)F)CC(c3cc(F)cc(F)c3)=NO2)CO1 (mixture of isomers) [Example 1.88] the “HER effect + SAF” value [1, 5] was 10%, the “Reduction [%]” value [1, 5] was 75% and the “Reduction [Difference]” value [1, 5] was 30. For the same compound, the HER effect [1, 6] was 40%, the “HER effect + SAF” value [2, 7] was 30% and the “Reduction [%]” value [2, 7] was 57%. The “Reduction [Difference]” value [2, 7] was 40, the HER effect [2, 8] was 70% and the “HER effect + SAF” value [3, 9] was 0%. For the same compound, the “Reduction [%]” value [3, 9] was 100%, the “Reduction [Difference]” value [3, 9] was 20 and the “HER effect + SAF” value [3, 10] was 10%. For the same compound, the “Reduction [%]” value [3, 10] was 80%, the “Reduction [Difference]” value [3, 10] was 40 and the “HER effect + SAF” value [3, 11] was 20%. The “Reduction [%]” value [3, 11] was 76%, the “Reduction [Difference]” value [3, 11] was 65 and the HER effect ([3]; herbicide alone 0.5 g a.i./ha post-emergence, 21 DAT) was 20%. For the same compound, the HER effect [3, 12] was 50%, the HER effect ([3]; herbicide alone 8 g a.i./ha post-emergence, 21 DAT) was 85% and the “HER effect + SAF [%] (crop damage)” value ([4]; HER dose 2 g a.i./ha) was 10%. For the same compound, the “Reduction [%]” value ([4]; HER dose 2 g a.i./ha) was 86%, the “Reduction [Difference]” value ([4]; HER dose 2 g a.i./ha) was 60 and the “HER effect [%] (crop damage, herbicide without safener)” value ([4]; HER dose 2 g a.i./ha) was 70%. The “HER effect + SAF [%] (crop damage)” value ([4]; HER dose 8 g a.i./ha) was 20%, the “Reduction [%]” value ([4]; HER dose 8 g a.i./ha) was 76% and the “Reduction [Difference]” value ([4]; HER dose 8 g a.i./ha) was 65. For the same compound, the “HER effect [%] (crop damage, herbicide without safener)” value ([4]; HER dose 8 g a.i./ha) was 85%.

COC(=O)C1COCC1NC(=O)C1(C)CC(c2cc(F)cc(F)c2)=NO1 (mixture of isomers) [Example 1.93] was tested, and the “HER effect + SAF” value [1, 13] was 10%, the “Reduction [%]” value [1, 13] was 88% and the “Reduction [Difference]” value [1, 13] was 75. The “HER effect + SAF” value [1, 14] was 30%, the “Reduction [%]” value [1, 14] was 67% and the “Reduction [Difference]” value [1, 14] was 60. The HER effect [1, 15] was 85%, the HER effect [1, 16] was 90% and the “HER effect + SAF” value [2, 7] was 10%. The “Reduction [%]” value [2, 7] was 88%, the “Reduction [Difference]” value [2, 7] was 75 and the “HER effect + SAF” value [2, 17] was 50%. For the same compound, the “Reduction [%]” value [2, 17] was 46%, the “Reduction [Difference]” value [2, 17] was 43 and the HER effect [2, 8] was 85%. The HER effect ([2]; herbicide alone 8 g a.i./ha, 21 DAT) was 93%, the “HER effect + SAF” value [3, 18] was 30% and the “Reduction [%]” value [3, 18] was 65%. The “Reduction [Difference]” value [3, 18] was 55, the “HER effect + SAF” value [3, 19] was 70% and the “Reduction [%]” value [3, 19] was 22%. The “Reduction [Difference]” value [3, 19] was 20, the HER effect [3, 20] was 85% and the HER effect [3, 21] was 90%. For the same compound, the “HER effect + SAF [%] (crop damage)” value ([4]; HER dose 2 g a.i./ha) was 0%, the “Reduction [%]” value ([4]; HER dose 2 g a.i./ha) was 100% and the “Reduction [Difference]” value ([4]; HER dose 2 g a.i./ha) was 85. The “HER effect [%] (crop damage, herbicide without safener)” value ([4]; HER dose 2 g a.i./ha) was 85%, the “HER effect + SAF [%] (crop damage)” value ([4]; HER dose 8 g a.i./ha) was 10% and the “Reduction [%]” value ([4]; HER dose 8 g a.i./ha) was 89%. For the same compound, the “Reduction [Difference]” value ([4]; HER dose 8 g a.i./ha) was 83, the “HER effect [%] (crop damage, herbicide without safener)” value ([4]; HER dose 8 g a.i./ha) was 93% and the “HER effect + SAF [%] (crop damage)” value ([4]; HER dose 32 g a.i./ha) was 20%. For the same compound, the “Reduction [%]” value ([4]; HER dose 32 g a.i./ha) was 79%, the “Reduction [Difference]” value ([4]; HER dose 32 g a.i./ha) was 75 and the “HER effect [%] (crop damage, herbicide without safener)” value ([4]; HER dose 32 g a.i./ha) was 95%.

COC(=O)C1(C)CC(NC(=O)C2(C(C)(F)F)CC(c3cc(F)cc(F)c3)=NO2)CO1 (mixture of isomers) [Example 1.94] was tested, and the “HER effect + SAF” value [1, 22] was 0%, the “Reduction [%]” value [1, 22] was 100% and the “Reduction [Difference]” value [1, 22] was 30. For the same compound, the “HER effect + SAF” value [1, 13] was 30%, the “Reduction [%]” value [1, 13] was 67% and the “Reduction [Difference]” value [1, 13] was 60. The “HER effect + SAF” value [1, 14] was 70%, the “Reduction [%]” value [1, 14] was 22% and the “Reduction [Difference]” value [1, 14] was 20. For the same compound, the HER effect [1, 23] was 30%, the HER effect [1, 15] was 90% and the HER effect [1, 16] was 90%. For the same compound, the “HER effect + SAF” value [2, 5] was 0%, the “Reduction [%]” value [2, 5] was 100% and the “Reduction [Difference]” value [2, 5] was 20. The “HER effect + SAF” value [2, 24] was 0%, the “Reduction [%]” value [2, 24] was 100% and the “Reduction [Difference]” value [2, 24] was 85. The “HER effect + SAF” value [2, 25] was 10%, the “Reduction [%]” value [2, 25] was 88% and the “Reduction [Difference]” value [2, 25] was 75. It also gave an HER effect [2, 6] of 20%, an HER effect ([2]; herbicide alone 6 g a.i./ha, 21 DAT) of 85% and an HER effect ([2]; herbicide alone 24 g a.i./ha, 21 DAT) of 85%. The “HER effect + SAF” value [3, 26] was 0%, the “Reduction [%]” value [3, 26] was 100% and the “Reduction [Difference]” value [3, 26] was 30. The “HER effect + SAF” value [3, 18] was 20%, the “Reduction [%]” value [3, 18] was 78% and the “Reduction [Difference]” value [3, 18] was 70. The “HER effect + SAF” value [3, 19] was 30%, the “Reduction [%]” value [3, 19] was 67% and the “Reduction [Difference]” value [3, 19] was 60. For the same compound, the HER effect ([3]; herbicide alone 2 g a.i./ha post-emergence, 10 DAT) was 30%, the HER effect [3, 20] was 90% and the HER effect [3, 21] was 90%. For the same compound, the “HER effect + SAF [%] (crop damage)” value ([4]; HER dose 1.5 g a.i./ha) was 0%, the “Reduction [%]” value ([4]; HER dose 1.5 g a.i./ha) was 100% and the “Reduction [Difference]” value ([4]; HER dose 1.5 g a.i./ha) was 20. For the same compound, the “HER effect [%] (crop damage, herbicide without safener)” value ([4]; HER dose 1.5 g a.i./ha) was 20%, the “HER effect + SAF [%] (crop damage)” value ([4]; HER dose 6 g a.i./ha) was 10% and the “Reduction [%]” value ([4]; HER dose 6 g a.i./ha) was 88%. For the same compound, the “Reduction [Difference]” value ([4]; HER dose 6 g a.i./ha) was 75, the “HER effect [%] (crop damage, herbicide without safener)” value ([4]; HER dose 6 g a.i./ha) was 85% and the “HER effect + SAF [%] (crop damage)” value ([4]; HER dose 24 g a.i./ha) was 20%. The “Reduction [%]” value ([4]; HER dose 24 g a.i./ha) was 76%, the “Reduction [Difference]” value ([4]; HER dose 24 g a.i./ha) was 65 and the “HER effect [%] (crop damage, herbicide without safener)” value ([4]; HER dose 24 g a.i./ha) was 85%.

In the case of COCCOC(=O)C1C=CC(NC(=O)C2(C)CC(c3cc(Cl)cc(C#N)c3)=NO2)C1 (stereo not shown) [Example 1.5], the “HER effect + SAF” value [1, 7] is reported as 0%, the “Reduction [%]” value [1, 7] is reported as 100% and the “Reduction [Difference]” value [1, 7] is reported as 20. The HER effect [1, 8] was 20%, the “HER effect + SAF” value [2, 22] was 0% and the “Reduction [%]” value [2, 22] was 100%. For the same compound, the “Reduction [Difference]” value [2, 22] was 50, the HER effect [2, 23] was 50% and the “HER effect + SAF” value [3, 10] was 0%. For the same compound, the “Reduction [%]” value [3, 10] was 100%, the “Reduction [Difference]” value [3, 10] was 20 and the “HER effect + SAF” value [3, 27] was 60%. For the same compound, the “Reduction [%]” value [3, 27] was 25%, the “Reduction [Difference]” value [3, 27] was 20 and the HER effect [3, 12] was 20%. For the same compound, the HER effect ([3]; herbicide alone 32 g a.i./ha post-emergence, 21 DAT) was 80%, the “HER effect + SAF [%] (crop damage)” value ([4]; HER dose 8 g a.i./ha) was 10% and the “Reduction [%]” value ([4]; HER dose 8 g a.i./ha) was 89%. The “Reduction [Difference]” value ([4]; HER dose 8 g a.i./ha) was 80, the “HER effect [%] (crop damage, herbicide without safener)” value ([4]; HER dose 8 g a.i./ha) was 90% and the “HER effect + SAF [%] (crop damage)” value ([4]; HER dose 32 g a.i./ha) was 30%. The “Reduction [%]” value ([4]; HER dose 32 g a.i./ha) was 68%, the “Reduction [Difference]” value ([4]; HER dose 32 g a.i./ha) was 65 and the “HER effect [%] (crop damage, herbicide without safener)” value ([4]; HER dose 32 g a.i./ha) was 95%.
